Results taken from ChEMBL document CHEMBL1201862, “PubChem BioAssay data set” (2004).
The source made the active and inactive calls.

What was measured:
[1] = TB:CFU starved Measured in Microorganism System Using Imaging - 7108-06_Inhibitor_Dose_DryPowder_Activity_Set2.; assay type: functional
[2] = target: Glutathione-S-transferase (Schistosoma japonicum, UniProt Q26513); experiment: GST-antibody interaction or FRET quenching – biochemical, TR-FRET, artefact control for Vif-APOBEC3G degradation inhibitor project, dose response (AID 1117362); assay type: functional
[3] = test system: Vero; experiment: viability of Vero cells under compound – cytotoxicity control for flavivirus capping enzyme inhibitors (AID 588742); assay type: functional; conditions: Chlorocebus sabaeus
[4] = viability loss in THP-1 monocytes – THP-1 cells, cytotoxicity control for Vif-APOBEC3G degradation inhibitor project, dose response (AID 1117359); assay type: functional; conditions: THP-1
[5] = Potency on glucagon-like peptide 1 release, dose-response in NCI-H716 cell line, half maximal inhibitory concentration (AID 1117344); assay type: functional, cell-based
[6] = glucagon-like peptide-1 release potency in STC-1, concentration-response, half-maximal inhibitory concentration in the STC-1 line (AID 1117345); assay type: functional, cell-based
[7] = target: Phospholipase A2 (Homo sapiens, UniProt P04054); assay type: functional;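 note: confirmatory dose-response counterscreen on phospholipase A2, testing hits that came from an ultra-high-throughput screen for ATG4B inhibitors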
[8] = cytotoxicity toward HCT116 cells – cell-based, CellTiter-Glo luminescence, IC50, dose response (AID 1117332); assay type: functional; conditions: HCT-116
[9] = Reduced DLD-1 viability, concentration-response, CellTiter-Glo luminescence (AID 1117352); assay type: functional
[10] = CellTiter-Glo luminescence survival assay, SW480 colon tumor line, concentration-response curve, half-maximal inhibitory concentration (AID 1117338); assay type: functional
[11] = target: Heat shock protein HSP 90-alpha (Homo sapiens, UniProt P07900); assay type: functional, organism-based
[12] = cytotoxicity toward HT-29 cells – cell-based, CellTiter-Glo luminescence, IC50, dose response (AID 1117330); assay type: functional
[13] = target: T1, DNA repair protein RAD52 homolog (Homo sapiens, UniProt P43351); assay type: functional, biochemical
T1 sequence (P43351 whole entry): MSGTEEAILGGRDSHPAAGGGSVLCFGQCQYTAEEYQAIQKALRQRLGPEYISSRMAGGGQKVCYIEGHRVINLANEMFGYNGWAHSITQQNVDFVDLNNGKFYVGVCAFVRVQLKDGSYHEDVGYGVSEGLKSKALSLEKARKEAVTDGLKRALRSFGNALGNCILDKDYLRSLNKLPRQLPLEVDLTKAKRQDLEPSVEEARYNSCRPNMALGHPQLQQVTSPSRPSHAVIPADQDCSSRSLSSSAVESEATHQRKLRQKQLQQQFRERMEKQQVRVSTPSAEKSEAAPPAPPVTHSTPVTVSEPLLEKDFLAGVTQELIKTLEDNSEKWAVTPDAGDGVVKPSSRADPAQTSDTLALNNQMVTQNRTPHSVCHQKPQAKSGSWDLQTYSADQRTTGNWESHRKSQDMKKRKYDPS

[14] = RKO cell viability reduction, dose response, CellTiter-Glo luminescence (AID 1117322); assay type: functional
[15] = target: T2, Cysteine protease ATG4B (Homo sapiens, UniProt Q9Y4P1); assay type: functional;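 note: Fluorescence-based dose-response confirmation assay measuring inhibition of ATG4B activity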
T2 sequence (Q9Y4P1 whole entry): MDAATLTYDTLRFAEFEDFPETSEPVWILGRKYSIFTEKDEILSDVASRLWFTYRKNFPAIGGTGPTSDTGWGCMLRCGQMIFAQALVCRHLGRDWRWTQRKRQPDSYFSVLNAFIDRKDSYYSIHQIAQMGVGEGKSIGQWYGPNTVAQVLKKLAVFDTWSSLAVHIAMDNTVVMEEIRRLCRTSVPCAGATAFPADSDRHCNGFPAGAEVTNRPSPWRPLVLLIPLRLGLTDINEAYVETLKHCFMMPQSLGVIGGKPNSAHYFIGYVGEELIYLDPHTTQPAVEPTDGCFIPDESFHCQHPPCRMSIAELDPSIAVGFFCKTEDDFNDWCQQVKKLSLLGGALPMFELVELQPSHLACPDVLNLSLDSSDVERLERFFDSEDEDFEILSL

[16] = SNU-C1 cell viability reduction, dose response, CellTiter-Glo luminescence (AID 1117323); assay type: functional, cell-based
[17] = viability loss in HeLa cells – cytotoxicity control for MgcRacGAP inhibitor project, dose response (AID 624300); assay type: functional
[18] = target: T3, Rac GTPase-activating protein 1 (Homo sapiens, UniProt Q9H0H5); experiment: blockers of MgcRacGAP-driven Rac1 GTP hydrolysis – biochemical, ADP Hunter fluorescence, primary and confirmatory, confirmation (AID 624330); assay type: functional
T3 sequence (Q9H0H5 whole entry): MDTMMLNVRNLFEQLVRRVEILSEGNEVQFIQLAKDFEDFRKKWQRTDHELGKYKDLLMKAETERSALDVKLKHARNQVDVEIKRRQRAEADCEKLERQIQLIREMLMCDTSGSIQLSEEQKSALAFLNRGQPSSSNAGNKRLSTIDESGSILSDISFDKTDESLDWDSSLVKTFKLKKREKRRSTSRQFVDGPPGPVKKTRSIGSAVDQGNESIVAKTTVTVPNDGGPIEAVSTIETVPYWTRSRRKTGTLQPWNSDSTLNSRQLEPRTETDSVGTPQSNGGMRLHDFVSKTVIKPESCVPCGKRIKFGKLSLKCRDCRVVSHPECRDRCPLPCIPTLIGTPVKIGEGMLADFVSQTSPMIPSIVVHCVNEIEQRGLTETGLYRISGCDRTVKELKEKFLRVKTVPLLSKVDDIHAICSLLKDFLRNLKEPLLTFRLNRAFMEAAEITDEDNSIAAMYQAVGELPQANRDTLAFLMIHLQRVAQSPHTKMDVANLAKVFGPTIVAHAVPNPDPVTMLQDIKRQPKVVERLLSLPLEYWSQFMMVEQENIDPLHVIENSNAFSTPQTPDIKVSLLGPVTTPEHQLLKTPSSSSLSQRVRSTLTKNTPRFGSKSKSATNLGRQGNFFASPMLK

[19] = cells; assay type: functional, cell-based; conditions: INS-1E
[20] = rise of 2N DNA cells, HeLa – IC50, dose response (AID 1117349); assay type: functional, cell-based
[21] = HCT116 cell viability decrease, GSK3B pretreatment – CellTiter-Glo, IC50, dose response (AID 1117339); assay type: functional; conditions: HCT-116
[22] = cytotoxicity toward Colo320 cells – cell-based, CellTiter-Glo luminescence, IC50, dose response (AID 1117334); assay type: functional; conditions: COLO 320
[23] = rise of 4N DNA cells, HeLa – IC50, dose response (AID 1117351); assay type: functional, cell-based
[24] = OVCAR8 cell viability loss – plate reader, dry powder samples, PAX8 project, dose response (AID 743197); assay type: functional, cell-based; conditions: OVCAR-8
[25] = general mammalian cell viability loss – inhibitor set, cherry-pick, set 2, cytotoxicity control for miR-122 modulator project, dose response (AID 720697); assay type: functional, cell-based
[26] = viability loss in A549 lung cells – cell-based, 24 h, CellTiter-Glo luminescence, cherry-picks, cytotoxicity control, dose response (AID 1053115); assay type: functional; conditions: A549, 24 h
[27] = IGROV1 cell killing – plate reader, dry powder samples, PAX8 inhibitor project, dose response (AID 743043); assay type: functional, cell-based; conditions: IGROV-1
[28] = toxicity toward immortalized ovarian surface epithelium – cell-based, plate reader, dry powder samples, cytotoxicity control for PAX8 inhibitor project, dose response (AID 743045); assay type: functional
[29] = OVCAR-3 cell viability loss – plate reader, dry powder samples, PAX8 inhibitor project, dose response (AID 743044); assay type: functional, cell-based
[30] = lung carcinoma cell viability loss – CellTiter-Glo luminescence, dry powder, set 17, dose response (AID 1117284); assay type: functional, cell-based; conditions: A549
[31] = general mammalian cell viability loss – activator set, cherry-pick, cytotoxicity control for miR-122 modulator project, dose response (AID 720690); assay type: functional, cell-based;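 note: HEK293T human cells scored for general mammalian cytotoxicity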
[32] = target: Paired box protein Pax-8 (Homo sapiens, UniProt Q06710); experiment: PAX8 transcriptional activity inhibition in RMG-I – RMG-I cells, luciferase, cherry-pick, dose response (AID 687027); assay type: functional, cell-based;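 note: luciferase reporter driven by Pax8 target thyroperoxidase promoter measured by SteadyGlo luminescence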
[33] = target: T4, Endoplasmic reticulum aminopeptidase 1 (Homo sapiens, UniProt Q9NZ08); experiment: inhibition of human ERAP1 enzyme activity – biochemical, cherry-pick, set 2, plate reader, dose response (AID 743314)
[34] = target: T4, Endoplasmic reticulum aminopeptidase 1; experiment: blocking ERAP1 cleavage of leucine-AMC substrate – biochemical, fluorescence plate reader, dry powder, dose response (AID 1117292); assay type: functional

T4 sequence (Q9NZ08 whole entry): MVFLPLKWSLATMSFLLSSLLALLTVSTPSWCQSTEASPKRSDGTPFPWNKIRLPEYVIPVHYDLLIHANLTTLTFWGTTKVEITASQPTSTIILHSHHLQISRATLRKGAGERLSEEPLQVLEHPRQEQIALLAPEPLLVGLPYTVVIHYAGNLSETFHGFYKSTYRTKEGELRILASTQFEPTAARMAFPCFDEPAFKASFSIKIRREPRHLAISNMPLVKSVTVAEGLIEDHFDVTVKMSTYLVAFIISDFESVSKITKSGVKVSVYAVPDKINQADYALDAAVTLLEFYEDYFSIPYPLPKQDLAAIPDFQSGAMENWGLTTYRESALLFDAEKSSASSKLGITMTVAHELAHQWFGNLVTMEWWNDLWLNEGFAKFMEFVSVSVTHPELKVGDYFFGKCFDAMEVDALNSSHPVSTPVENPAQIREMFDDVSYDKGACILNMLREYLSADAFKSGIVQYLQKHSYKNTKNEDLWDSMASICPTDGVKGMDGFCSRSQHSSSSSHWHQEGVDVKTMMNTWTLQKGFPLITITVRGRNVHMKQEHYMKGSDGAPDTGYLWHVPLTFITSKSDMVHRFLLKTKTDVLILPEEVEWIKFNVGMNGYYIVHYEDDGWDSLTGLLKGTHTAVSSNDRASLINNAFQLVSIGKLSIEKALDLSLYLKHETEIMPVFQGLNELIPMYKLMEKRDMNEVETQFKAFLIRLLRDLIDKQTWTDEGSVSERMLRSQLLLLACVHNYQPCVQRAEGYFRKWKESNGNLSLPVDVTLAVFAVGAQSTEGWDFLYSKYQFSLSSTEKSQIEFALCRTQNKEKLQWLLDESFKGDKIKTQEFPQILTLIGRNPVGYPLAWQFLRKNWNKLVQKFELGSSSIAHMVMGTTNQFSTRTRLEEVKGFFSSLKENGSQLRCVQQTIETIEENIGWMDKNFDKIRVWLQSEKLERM
Glutathione-S-transferase, sequence (Q26513 whole entry): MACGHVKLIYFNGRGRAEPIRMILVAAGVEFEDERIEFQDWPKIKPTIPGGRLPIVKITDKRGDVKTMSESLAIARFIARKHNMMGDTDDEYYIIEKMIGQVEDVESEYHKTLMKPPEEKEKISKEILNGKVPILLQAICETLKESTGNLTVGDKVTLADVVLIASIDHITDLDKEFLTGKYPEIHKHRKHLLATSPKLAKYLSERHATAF
Phospholipase A2, sequence (P04054 whole entry): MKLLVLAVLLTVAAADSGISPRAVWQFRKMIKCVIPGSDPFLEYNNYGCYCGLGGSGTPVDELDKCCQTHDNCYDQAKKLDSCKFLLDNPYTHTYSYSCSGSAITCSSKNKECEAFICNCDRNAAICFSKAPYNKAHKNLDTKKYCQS
Paired box protein Pax-8, sequence (Q06710 whole entry): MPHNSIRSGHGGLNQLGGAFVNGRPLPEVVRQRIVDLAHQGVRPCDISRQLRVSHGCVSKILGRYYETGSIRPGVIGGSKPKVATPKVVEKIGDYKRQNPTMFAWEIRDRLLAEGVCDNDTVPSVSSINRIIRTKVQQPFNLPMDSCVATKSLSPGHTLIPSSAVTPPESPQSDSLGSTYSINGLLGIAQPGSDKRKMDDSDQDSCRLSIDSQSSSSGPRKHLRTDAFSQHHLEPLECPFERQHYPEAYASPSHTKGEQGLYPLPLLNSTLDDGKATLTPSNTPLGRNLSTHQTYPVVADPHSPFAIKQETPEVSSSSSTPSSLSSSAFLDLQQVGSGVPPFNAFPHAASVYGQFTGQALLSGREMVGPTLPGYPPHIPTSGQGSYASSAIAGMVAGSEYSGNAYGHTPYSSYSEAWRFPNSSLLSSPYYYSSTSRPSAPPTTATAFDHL

CCn1c(NC(=O)c2cccnc2O)nc2ccccc21
89.33 µM: AbsAC90 [1]

CC[n+]1c(/C=C2/C=C(C)CC(C)(C)C2)sc2ccc(OC)cc21
active: IC50 [2] > 100 µM | CC50 [3] > 40 µM | CC50 [4] 4.13 µM

CCCCCCCCCCCCCCCC[n+]1ccccc1
active: IC50 [7] 8.34 µM | IC50 [8] 1.19 µM | IC50 [9] 1.93 µM | IC50 [10] 1.61 µM | AC50 [11] 4.22 µM | IC50 [12] 2.29 µM | AC50 [13] 3.79 µM | IC50 [14] 1.27 µM | IC50 [15] 7.14 µM | IC50 [16] 0.934 µM | CC50 [17] 11.8 µM | IC50 [18] 61.1 µM | IC50 [20] 1.25 µM | IC50 [21] 2.29 µM | IC50 [22] 1.64 µM
inactive: IC50 [5] 14.8 µM | IC50 [6] > 20 µM | IC50 [19] > 33.3 µM | IC50 [23] > 10 µM

C[C@H](O)C#Cc1ccc2c(c1)O[C@H](CN(C)Cc1ccc(-c3ccccc3)cc1)[C@@H](C)CN([C@@H](C)CO)S2(=O)=O
active: AC50 [24] 43.2 µM | AC50 [25] 1.58 µM | AC50 [27] 15.9 µM | AC50 [28] 3.37 µM | AC50 [29] 10.7 µM | AC50 [30] 37.9 µM | AC50 [31] 15.2 µM | AC50 [32] 3.42 µM
inactive: AC50 [26] > 60 µM

CC(=O)N1CCN(C(=O)C2(NC(=O)Nc3ccc(C)cc3)CCCCC2)CC1
active: AC50 [33] 8.21 µM | AC50 [34] 24.8 µM
